Experimental data published in ChEMBL document CHEMBL1806462, “Discovery of pyrrolo[2,1-f][1,2,4]triazine C6-ketones as potent, orally active p38α MAP kinase inhibitors” (Bioorg Med Chem Lett, 2011).

Legend:
Liver microsomes = assay: Clearance in human liver microsomes; assay type: ADME, Microsome
[1] = Cmax in rat at 10 mg/kg, po; assay type: ADME, organism-based; design: dose 10 mg/kg, route oral; details: in vivo
[2] = Plasma concentration in rat at 10 mg/kg, po after 4 hrs; assay type: ADME, organism-based; design: dose 10 mg/kg, route oral
Rattus norvegicus = assay: AUC (0 to 4 hrs) in rat at 10 mg/kg, po; assay type: ADME, organism-based, Plasma; design: time < 4 hr, dose 10 mg/kg, route oral; details: in vivo

CL (Liver microsomes) [nmol/min/mg]	Cmax [1] [ng/mL]	concentration at 4 h [2] [ng/mL]	AUC (Rattus norvegicus) [ng·h/mL]	SMILES
0.16				COC(=O)NC(=O)c1ccc(C)c(Nc2ncnn3cc(C(=O)c4ccccc4)c(C)c23)c1
0.08	752	550	2300	Cc1ccc(C(=O)NC2CC2)cc1Nc1ncnn2cc(C(=O)c3ccccc3)c(C)c12
